This note sets out measurements from patent US8629100B2, “Method of inhibiting clostridium difficile by administration of oritavancin” (The Medicines Company, priority 2007, dated 2014).

Assay [1] relates to C. difficile ATCC 43255. Put plainly: Hamster model of CDI, intravenous administration. The format is in vivo, Syrian golden hamsters. As for the experimental part: C. difficile ATCC 43255 was used in all experiments. This strain was originally isolated from an abdominal wound and is toxin A+/B+ and binary toxin negative. C. difficile spores were prepared for the infection by incubating C. difficile cells on blood agar plate at 37° C. anaerobically for 7 days, to promote spore formation. The C. difficile colonies were resuspended in phosphate buffered saline (PBS) and mixed with an equal volume of 100% ethanol for one hour. The spores were centrifuged, resuspended in PBS, aliquoted, and frozen at −20° C. Spores were diluted in PBS for oral inoculation into hamsters.
All studies were performed in accordance with protocols that were approved by the Institutional Animal Care and Use Committee. […] One day later (Day 0), animals were infected orally with 10^5 C. difficile spores by oral gavage.
Starting on Day 1 post-infection, either vehicle, vancomycin (50 mg/kg), or oritavancin formulated in 10% hydroxypropyl β-cyclodextrin (HPCD) (50 mg/kg) was administered intravenously […] to the hamsters (n=10/group). A total of either 1, 2 or 3 doses of oritavancin was injected on Days 1, 3, and 5, respectively (q2d).
The infected hamsters received the first dose of antibiotic on day 1 and treatment was repeated each 2 days for up to five days; an untreated group was used as control.

The test system of assay [2] is C. difficile (CD) ATCC 43255. Put plainly: Hamster model of CDI, oral administration. The assay is classed as in vivo, Syrian golden hamsters. The following applies: for Mean survival time: ORI 100 mg/kg (HPCD), VA 50 mg/kg/day, oral, 5 days; for Survival prolonged more than untreated animals: formulated in HPCD, gavage. The procedure:
C. difficile (CD) ATCC 43255 was used in all experiments. CD spores were prepared for the infection by incubating CD cells on blood agar plate at 37° C. anaerobically for 7 days, to promote spore formation. The CD colonies were resuspended in phosphate buffered saline (PBS) and mixed with an equal volume of 100% ethanol for one hour. The spores were centrifuged, resuspended in PBS, aliquoted, and frozen at −20° C. Spores were diluted in PBS for oral inoculation into hamsters.
All studies were performed in accordance with protocols that were approved by the Institutional Animal Care and Use Committee. […] One day later (Day 0), animals were infected orally with […] CD spores.
1) Starting on Day 1 post-infection (PI), a single dose of either vehicle, vancomycin (VA) (50 mg/kg/day), or oritavancin (ORI) formulated in 10% hydroxypropyl β-cyclodextrin (HPCD) (10, 50 or 100 mg/kg/day) was administered to the hamsters (n=10/group) by gavage for 5 days.
Detection of CD cells and toxins were detected in the caecal contents of animals at both the experimental and clinical endpoints. Presence of CD toxins (toxin A and B) were detected by using the CD TOX A/B IITM kit (Techlab) as described by the manufacturer. Limit of detection was ≧0.8 ng/mL for Toxin A and ≧2.5 ng/mL of Toxin B. Total viable cells (TC) (both vegetative and spore forms) were enumerated by serially diluting the caecal content by 10 fold in PBS containing 2% oxyrase (Oxyrase Inc). The caecal content dilutions were plated on Brazier's CCEY lysozyme agar (Lab160) without egg yolk. CD spores were counted by treating caecum samples with an equal volume of pure ethanol. The limit of detection (LOD) was 1.47 and 1.77 Log 10 CFU/g caecal content for TC and spores, respectively.
Data were analyzed by Kaplan-Meier and Log rank Wilcoxon tests survival analysis by using GraphPad Prism (version 5.00). A p-value lower than 0.05 (p<0.05) was considered to indicate statistical significance.

The test system of assay [3] is C. difficile spores. Put plainly: Agar-based culture: spore recovery after antimicrobial exposure. Particulars: 350 mg/L, 1 min and 30 min, filtered onto CAF, 48 h. The assay is classed as cell-based. As for the experimental part:
Antimicrobial-spore solutions were mixed, diluted (to sub-MIC) in sterile de-ionised water, filtered onto cellulose acetate filters (CAF, 0.45 μm) and washed. CAF were transferred onto Brazier's agar (pH 7)+5 mg/L lysozyme, and following anaerobic incubation (37° C., 48 h), % C. difficile spores (vs. control) were determined.

Assay [4] deals with S. aureus NCTC 6571. Briefly: Agar incorporation MIC against S. aureus NCTC 6571. The assay is classed as cell-based. Particulars: Staphylococcus aureus, NCTC6571; agar incorporation methodology.
The subject of assay [5] is Oxford S. aureus. Put plainly: Antimicrobial-spore binding: washed exposed spores on S. aureus lawn (Example 3D). The format is cell-based, Staphylococcus aureus. The following applies: spores suspended in 350 mg/L; after 0, 1, 2, 4, 5, 6, 9 and 10 washes. The procedure:
A further potential explanation for the failure to recover oritavancin-treated C. difficile spores from the above experiments (in addition to presence of the drug in cellulose acetate filters) is that oritavancin may be able to bind C. difficile spores and directly damage spores, or inhibit spore germination and/or outgrowth. A simple experiment was conducted in order to assess antimicrobial-spore binding:
Two solutions were prepared:
1) C. difficile spores (PCR ribotype 001, control), and
2) C. difficile spores suspended in 350 mg/L oritavancin (diluent: Tween-80-H2O).
Fresh blood agar was inoculated with a lawn of the Oxford S. aureus. In one replicate, C. difficile spores were centrifuged (16000 g, 5 min), the supernatants removed and pellets re-suspended in 500 μL of Tween-80-H2O. 10 μL of the re-suspended spore suspension was inoculated onto the surface S. aureus lawn.
In another replicate, C. difficile spore suspensions were washed a total of 10 times using this procedure and inoculated onto the surface of the S. aureus lawn.
In both replicates agar was incubated aerobically at 37° C. overnight, and then the presence or absence of zones of inhibition were recorded.

[6] abbreviates: three intravenous doses 50 mg/kg q2d (Days 1, 3, 5).

In brackets after ≈: the same amount, converted by molar mass.

In the case of `CN[C@H](CC(C)C)C(=O)N[C@H]1C(=O)N[C@@H](CC(N)=O)C(=O)N[C@H]2C(=O)N[C@H]3C(=O)N[C@H](C(=O)N[C@H](C(=O)O)c4cc(O)cc(O)c4-c4cc3ccc4O)[C@H](O)c3ccc(c(Cl)c3)Oc3cc2cc(c3O[C@@H]2O[C@H](CO)[C@@H](O)[C@H](O)[C@H]2O[C@H]2C[C@](C)(N)[C@H](O)[C@H](C)O2)Oc2ccc(cc2Cl)[C@H]1O` [vancomycin], in assay [1] (50 mg/kg q2d intravenous), the “Proportional survival rate on Day 5” value came out at 30%; the “Treated animals that died between the second and third injections (Days 3 and 5)” value is recorded as 70%. In assay [1] (setting [6]), the “Survival prolonged compared to untreated animals” value was found to be 8 days. This molecule registered a Mean survival time in assay [2] of 12 days.

`CN[C@H](CC(C)C)C(=O)N[C@H]1C(=O)N[C@@H](CC(N)=O)C(=O)N[C@H]2C(=O)N[C@H]3C(=O)N[C@H](C(=O)N[C@H](C(=O)O)c4cc(O)cc(O)c4-c4cc3ccc4O)[C@H](O[C@H]3C[C@](C)(N)[C@@H](O)[C@H](C)O3)c3ccc(c(Cl)c3)Oc3cc2cc(c3O[C@@H]2O[C@H](CO)[C@@H](O)[C@H](O)[C@H]2O[C@H]2C[C@](C)(NCc3ccc(-c4ccc(Cl)cc4)cc3)[C@@H](O)[C@H](C)O2)Oc2ccc(cc2Cl)[C@H]1O` [oritavancin, N-(4-(4-chlorophenyl)benzyl)A82846B]: the “Recovery of C. difficile spores following exposure” value in assay [3] is recorded as “not recovered”. Moreover, in assay [4], the MIC was roughly 4 µg/mL (≈ 2.23 µM). For the same molecule, the “Effect of antibiotic-exposed C. difficile spores on growth of Oxford S. aureus” value in assay [5] is “inhibitory to growth”. In assay [1] (2 doses 50 mg/kg intravenous), the “Survival longer than animals with equivalent dose and regimen (2×q2d) of vancomycin” value turned out to be 5 days. For the same molecule, the “Survival prolonged compared to untreated animals” value was 4 days in assay [1] (one intravenous dose 50 mg/kg (Day 1), in 10% HPCD); 7 days in assay [1] (setting [6]); 5 days in assay [1] (two intravenous doses 50 mg/kg q2d (Days 1 and 3), in 10% HPCD). The results for the “Survival prolonged more than untreated animals” value in assay [2] (10 mg/kg once daily for 5 days), in assay [2] (50 mg/kg once daily for 5 days) and in assay [2] (100 mg/kg once daily for 5 days) were 9 days, 13 days and greater than 17 days, respectively. For the same molecule, in assay [2] (100 mg/kg, HPCD), the “Efficacy compared to VA on Day 12 PI” value was “superior efficacy”. Besides, the Mean survival time in assay [2] was 17 days.
